# From patent publication US11236084B2, “Substituted azaindoline derivatives as NIK inhibitors” (Janssen Pharmaceutica NV, priority 2017, dated 2022)
# Read-outs that look alike come from different tables or passages of the source.
# Molecular target: recombinant human NF-kappaB-inducing kinase (NIK/MAP3K14) (Homo sapiens, UniProt Q99558)
# Experiment: Biological Assay B: inhibition of auto-phosphorylation of recombinant human NIK/MAP3K14 (AlphaScreen), performed at 2 locations
# Assay type: biochemical
# Settings: averaged values
# Procedure: Inhibition of Auto-Phosphorylation of Recombinant Human NF-kappaB-Inducing Kinase (NIK/MAP3K14) Activity (AlphaScreen®)
# NIK/MAP3K14 auto-phosphorylation activity was measured using the AlphaScreen® (αscreen) format (Perkin Elmer). All compounds tested were dissolved in dimethyl sulfoxide (DMSO) and further dilutions were made in assay buffer. Final DMSO concentration was 1% (v/v) in assays. Assay buffer was 50 mM Tris pH 7.5 containing 1 mM EGTA (ethylene glycol tetraacetic acid), 1 mM DTT (dithiothreitol), 0.1 mM Na3VO4, 5 mM MgCl2, 0.01% Tween® 20. Assays were carried out in 384 well Alphaplates (Perkin Elmer). Incubations consisted of compound, 25 microM Adenosine-5′-triphosphate (ATP), and 0.2 nM NIK/MAP3K14. Incubations were initiated by addition of GST-tagged NIK/MAP3K14 enzyme, carried out for 1 h at 25° C. and terminated by addition of stop buffer containing anti-phospho-IKK Ser176/180 antibody. Protein A Acceptor and Glutathione-Donor beads were added before reading using an EnVision® Multilabel Plate Reader (Perkin Elmer). Signal obtained in the wells containing blank samples was subtracted from all other wells and IC50's were determined by fitting a sigmoidal curve to % inhibition of control versus Log10 compound concentration.
# Assay B was performed at 2 different locations.
# Data for the compounds of the invention in the above assays are provided in Table A (the values in Table are averaged values over all measurements on all batches of a compound; values as IC50 (nM)). (‘n.c.’ means not calculated: ‘Co.’ means compound)
# [1] = location 1, AlphaScreen auto-phosphorylation, read-out: Assay B location 1 IC50
# [2] = location 2, AlphaScreen auto-phosphorylation, read-out: Assay B location 2 IC50
# [3] = location 1, NIK auto-phosphorylation, AlphaScreen, read-out: Assay B location 1 IC50
# recombinant human NF-kappaB-inducing kinase (NIK/MAP3K14), sequence (Q99558 whole entry): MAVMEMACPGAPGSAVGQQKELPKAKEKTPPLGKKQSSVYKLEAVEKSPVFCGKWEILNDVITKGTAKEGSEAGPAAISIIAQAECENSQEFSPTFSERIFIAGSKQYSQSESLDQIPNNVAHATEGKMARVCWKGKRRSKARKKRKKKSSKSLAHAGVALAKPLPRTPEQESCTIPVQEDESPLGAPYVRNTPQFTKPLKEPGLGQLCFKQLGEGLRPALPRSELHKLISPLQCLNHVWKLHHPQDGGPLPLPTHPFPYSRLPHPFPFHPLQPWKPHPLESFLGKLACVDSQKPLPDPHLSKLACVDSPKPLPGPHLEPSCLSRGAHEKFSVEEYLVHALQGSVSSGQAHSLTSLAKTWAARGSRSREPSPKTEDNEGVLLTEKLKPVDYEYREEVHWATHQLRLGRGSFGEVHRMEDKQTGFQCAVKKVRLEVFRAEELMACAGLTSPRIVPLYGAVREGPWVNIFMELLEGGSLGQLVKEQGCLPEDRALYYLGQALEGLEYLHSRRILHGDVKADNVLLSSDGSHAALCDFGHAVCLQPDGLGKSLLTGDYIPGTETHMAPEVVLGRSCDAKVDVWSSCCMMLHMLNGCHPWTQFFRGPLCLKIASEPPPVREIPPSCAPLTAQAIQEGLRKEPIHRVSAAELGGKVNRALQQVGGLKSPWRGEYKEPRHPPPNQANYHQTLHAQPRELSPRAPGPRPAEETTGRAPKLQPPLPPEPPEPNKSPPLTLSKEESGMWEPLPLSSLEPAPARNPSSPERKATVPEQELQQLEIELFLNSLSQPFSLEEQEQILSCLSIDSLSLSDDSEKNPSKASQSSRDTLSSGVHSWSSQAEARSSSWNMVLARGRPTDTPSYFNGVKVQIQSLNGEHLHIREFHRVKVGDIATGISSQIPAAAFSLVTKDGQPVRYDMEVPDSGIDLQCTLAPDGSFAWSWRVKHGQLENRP
IC50 [1],IC50 [2],IC50 [3],SMILES
0.0183 µM,0.0057 µM,–,"COc1cc(N2CC3(CCOCC3)C2)c(Cl)cc1Nc1nccc(-c2cnc3c(c2)C(C)(CO)CN3)n1 (single isomer, unassigned) [Compound 3R]"
0.055 µM,0.0363 µM,–,"COc1cc(N2CCOCC2)c(C#N)cc1Nc1nccc(-c2cnc3c(c2)C(C)(CO)CN3)n1 (single isomer, unassigned) [Compound 4R]"
–,0.0316 µM,–,"COCCN(C)c1cc(OC)c(Nc2nccc(-c3cnc4c(c3)C(C)(CO)CN4)n2)cc1Cl (single isomer, unassigned) [Compound 5R]"
–,0.0016 µM,–,"COCCN(C)c1cc(OC)c(Nc2nccc(-c3cnc4c(c3)C(C)(CO)CN4)n2)cc1Cl (single isomer, unassigned) [Compound 5S]"
0.0191 µM,0.0277 µM,–,"COc1cc(N2CCOCC2)c(Cl)cc1Nc1nccc(-c2cnc3c(c2)C(C)(CO)CN3)n1 (single isomer, unassigned) [Compound 6R]"
0.004 µM,0.0024 µM,–,"COc1cc(N2CCOCC2)c(Cl)cc1Nc1nccc(-c2cnc3c(c2)C(C)(CO)CN3)n1 (single isomer, unassigned) [Compound 6S]"
0.0708 µM,0.0191 µM,–,"COc1cc(N2CC3(CCOCC3)C2)c(F)cc1Nc1nccc(-c2cnc3c(c2)C(C)(CO)CN3)n1 (single isomer, unassigned) [Compound 7R]"
0.0078 µM,0.0016 µM,–,"COc1cc(N2CC3(CCOCC3)C2)c(F)cc1Nc1nccc(-c2cnc3c(c2)C(C)(CO)CN3)n1 (single isomer, unassigned) [Compound 7S]"
–,0.0032 µM,–,"COc1cc(C(=O)N2CCCCC2)ccc1Nc1nccc(-c2cnc3c(c2)C(C)(CO)CN3)n1 (single isomer, unassigned) [Compound 156]"
–,0.0631 µM,–,"COc1cc(C(=O)N2CCCCC2)ccc1Nc1nccc(-c2cnc3c(c2)C(C)(CO)CN3)n1 (single isomer, unassigned) [Compound 157]"
–,0.0013 µM,–,"COc1ccc(C#N)cc1Nc1nccc(-c2cnc3c(c2)C(C)(CO)CN3)n1 (single isomer, unassigned) [Compound 248]"
–,0.0178 µM,–,"COc1ccc(C#N)cc1Nc1nccc(-c2cnc3c(c2)C(C)(CO)CN3)n1 (single isomer, unassigned) [Compound 249]"
0.102 µM,0.0427 µM,–,"COc1cc(N2CCOCC2)c(F)cc1Nc1nccc(-c2cnc3c(c2)C(C)(CO)CN3)n1 (single isomer, unassigned) [Compound 253]"
0.0065 µM,0.0036 µM,–,"COc1cc(N2CCOCC2)c(F)cc1Nc1nccc(-c2cnc3c(c2)C(C)(CO)CN3)n1 (single isomer, unassigned) [Compound 254]"
0.0102 µM,0.0072 µM,–,"Cc1cc(N2CCOCC2)c(F)cc1Nc1nccc(-c2cnc3c(c2)C(C)(CO)CN3)n1 (single isomer, unassigned) [Compound 255]"
0.155 µM,0.155 µM,–,"Cc1cc(N2CCOCC2)c(F)cc1Nc1nccc(-c2cnc3c(c2)C(C)(CO)CN3)n1 (single isomer, unassigned) [Compound 256]"
0.003 µM,0.0034 µM,–,"Cc1cc(N2CCOCC2)c(Cl)cc1Nc1nccc(-c2cnc3c(c2)C(C)(CO)CN3)n1 (single isomer, unassigned) [Compound 257]"
0.0912 µM,0.0257 µM,–,"Cc1cc(N2CCOCC2)c(Cl)cc1Nc1nccc(-c2cnc3c(c2)C(C)(CO)CN3)n1 (single isomer, unassigned) [Compound 258]"
0.0036 µM,0.0038 µM,–,"CC1(CO)CNc2ncc(-c3ccnc(Nc4cc(C#N)c(N5CCOCC5)cc4Cl)n3)cc21 (single isomer, unassigned) [Compound 259]"
0.117 µM,0.0708 µM,–,"CC1(CO)CNc2ncc(-c3ccnc(Nc4cc(C#N)c(N5CCOCC5)cc4Cl)n3)cc21 (single isomer, unassigned) [Compound 260]"
0.0083 µM,0.0072 µM,–,"CC1(CO)CNc2ncc(-c3ccnc(Nc4cc(F)c(N5CCOCC5)cc4Cl)n3)cc21 (single isomer, unassigned) [Compound 261]"
0.129 µM,0.129 µM,–,"Cc1cc(N2CCOCC2)c(C#N)cc1Nc1nccc(-c2cnc3c(c2)C(C)(CO)CN3)n1 (single isomer, unassigned) [Compound 262]"
0.129 µM,0.0537 µM,–,"CC1(CO)CNc2ncc(-c3ccnc(Nc4cc(F)c(N5CCOCC5)cc4Cl)n3)cc21 (single isomer, unassigned) [Compound 263]"
0.0066 µM,0.006 µM,–,"Cc1cc(N2CCOCC2)c(C#N)cc1Nc1nccc(-c2cnc3c(c2)C(C)(CO)CN3)n1 (single isomer, unassigned) [Compound 264]"

IC50 [1],IC50 [2],IC50 [3],SMILES
0.0479 µM,0.0355 µM,–,"CC1(CO)CNc2ncc(-c3ccnc(Nc4cc(Cl)c(N5CCOCC5)cc4Cl)n3)cc21 (single isomer, unassigned) [Compound 265]"
0.005 µM,0.0019 µM,–,"CC1(CO)CNc2ncc(-c3ccnc(Nc4cc(Cl)c(N5CCOCC5)cc4Cl)n3)cc21 (single isomer, unassigned) [Compound 266]"
2.69 µM,1.45 µM,–,"CN(C)CCOc1cc(N2CCOCC2)c(Cl)cc1Nc1nccc(-c2cnc3c(c2)C(C)(CO)CN3)n1 (single isomer, unassigned) [Compound 274]"
7.24 µM,3.39 µM,–,"CN(C)CCOc1cc(N2CCOCC2)c(F)cc1Nc1nccc(-c2cnc3c(c2)C(C)(CO)CN3)n1 (single isomer, unassigned) [Compound 286]"
0.112 µM,0.0575 µM,–,"COc1cc(N2CC(OC)C2)c(F)cc1Nc1nccc(-c2cnc3c(c2)C(C)(CO)CN3)n1 (single isomer, unassigned) [Compound 288]"
0.0014 µM,0.0005 µM,–,"COc1cc(N2CCN(C)CC2)c(Cl)cc1Nc1nccc(-c2cnc3c(c2)C(C)(CO)CN3)n1 (single isomer, unassigned) [Compound 291]"
0.0015 µM,0.0005 µM,–,"CCN1CCN(c2cc(OC)c(Nc3nccc(-c4cnc5c(c4)C(C)(CO)CN5)n3)cc2Cl)CC1 (single isomer, unassigned) [Compound 293]"
0.0123 µM,0.0051 µM,–,"CCN1CCN(c2cc(OC)c(Nc3nccc(-c4cnc5c(c4)C(C)(CO)CN5)n3)cc2Cl)CC1 (single isomer, unassigned) [Compound 295]"
0.708 µM,0.309 µM,–,"CN(C)CCOc1cc(N2CCOCC2)c(F)cc1Nc1nccc(-c2cnc3c(c2)C(C)(CO)CN3)n1 (single isomer, unassigned) [Compound 297]"
0.0081 µM,0.0023 µM,–,"COc1cc(N2CC(OC)C2)c(F)cc1Nc1nccc(-c2cnc3c(c2)C(C)(CO)CN3)n1 (single isomer, unassigned) [Compound 298]"
0.0138 µM,0.0048 µM,–,"COc1cc(N2CCN(C)CC2)c(Cl)cc1Nc1nccc(-c2cnc3c(c2)C(C)(CO)CN3)n1 (single isomer, unassigned) [Compound 303]"
–,–,0.0148 µM,"COc1cc(N2CC3(CCOCC3)C2)c(Cl)cc1Nc1ncc(Cl)c(-c2cnc3c(c2)C(C)(CO)CN3)n1 (single isomer, unassigned) [Compound 348]"
–,–,0.024 µM,"COc1cc(C(=O)NC2CCOCC2)ccc1Nc1ncc(Cl)c(-c2cnc3c(c2)C(C)(CO)CN3)n1 (single isomer, unassigned) [Compound 351]"
–,–,0.0339 µM,"COc1cc(C(=O)NC2CCOCC2)ccc1Nc1ncc(F)c(-c2cnc3c(c2)C(C)(CO)CN3)n1 (single isomer, unassigned) [Compound 352]"
0.01 µM,0.0022 µM,–,COc1cc(N2CC3(CCOCC3)C2)c(Cl)cc1Nc1nccc(-c2cnc3c(c2)C(C)(CO)CN3)n1 (centres unmarked) [Compound 3]
0.0063 µM,0.0041 µM,–,COCCN(C)c1cc(OC)c(Nc2nccc(-c3cnc4c(c3)C(C)(CO)CN4)n2)cc1Cl (centres unmarked) [Compound 5]
0.0047 µM,0.004 µM,–,COc1cc(N2CCOCC2)c(Cl)cc1Nc1nccc(-c2cnc3c(c2)C(C)(CO)CN3)n1 (centres unmarked) [Compound 6]
0.0155 µM,0.0026 µM,–,COc1cc(N2CC3(CCOCC3)C2)c(F)cc1Nc1nccc(-c2cnc3c(c2)C(C)(CO)CN3)n1 (centres unmarked) [Compound 7]
0.0053 µM,0.0018 µM,–,COc1cc(C(=O)N2CCC(OC)CC2)c(Cl)cc1Nc1nccc(-c2cnc3c(c2)C(C)(C)CN3)n1 [Compound 9]
0.0062 µM,0.0007 µM,–,COc1cc(N)c(Cl)cc1Nc1nccc(-c2cnc3c(c2)C(C)(CO)CN3)n1 (centres unmarked) [Compound 11]
–,0.0016 µM,–,CC1(C)CNc2ncc(-c3ccnc(Nc4ccc(C(=O)NC5CNC5)cc4)n3)cc21 [Compound 34]
–,0.0112 µM,–,CNC(=O)c1ccc(Nc2nccc(-c3cnc4c(c3)C(C)(CO)CN4)n2)c(OC)c1 (centres unmarked) [Compound 152]
–,0.0191 µM,–,CCC1(CC#N)CNc2ncc(-c3ccnc(Nc4ccc(C(=O)NC5CCOCC5)cc4OC)n3)cc21 (centres unmarked) [Compound 154]
–,0.038 µM,–,CCC1(CC#N)CNc2ncc(-c3ccnc(Nc4ccc(C(=O)N5CCC(OC)CC5)cc4OC)n3)cc21 (centres unmarked) [Compound 155]
